Measurements from patent publication US12655142B2 (Merck Patent GmbH, priority 2019, dated 2026).
pIC50: −log10 of the molar value.

What was measured:
c-Kit(V654A) = target: T1, c-Kit(V654A) (Homo sapiens, UniProt P10721, V654A); experiment: c-Kit(V654A) assay (33P-ATP filter binding kinase assay); type: biochemical; conditions: recombinant human c-Kit aa 544-end V654A, ATP 200 μM
T1 construct: recombinant human c-Kit, amino acids 544-end containing the V654A mutation; GST (N)
Method: c-Kit(V654A) (N-terminal GST-tagged, recombinant human c-Kit, amino acids 544-end containing the V654A mutation) is incubated with 8 mM MOPS pH 7.0, 0.2 mM EDTA, 250 μM GGMEDIYEFMGGKKK, 10 mM MgAcetate and [gamma-33P-ATP] (specific activity approx. 500 cpm/pmol, concentration 200 μM). The reaction is initiated by the addition of the MgATP mix. After incubation for 40 minutes at room temperature, the reaction is stopped by the addition of 3% phosphoric acid solution. 10 μL of the reaction is then spotted onto a P30 filtermat and washed three times for 5 minutes in 75 mM phosphoric acid and once in methanol prior to drying and scintillation counting.

[1] = target: T2, GIST430/654 cell line expressing mutated constitutively active cKIT receptor tyrosine kinase (Δ560-576 deletion and V654A point mutation) (Homo sapiens, UniProt P10721, DEL560-576/V654A); experiment: Cellular cKIT autophosphorylation (phospho-Y307-cKIT, Luminex bead assay) in GIST430/654 cells; type: cell-based; conditions: compounds 45 min, read-out: GIST 430/654 IC50
T2 construct: endogenous in cells; host or cells: GIST430/654 cells
Method: Assay Principle for Cellular Testing of cKIT Mutant Inhibitors
The GIST430 cell line expressing constitutive active cKIT receptor tyrosine kinase (Δ560-576 deletion) and the Imatinib resistant GIST430/654 cell line expressing mutated constitutively active cKIT receptor tyrosine kinase (Δ560-576 deletion and V654A point mutation) were employed for assessing cellular potency of compounds. Cellular activity of mutant cKIT was determined by the degree of cKIT autophosphorylation at tyrosine 307 using a Luminex-based bead assay. GIST430 cells were plated with 22,000 cells per well of a 96-well plate in 100 μl medium (85% IMDM/15% FCS) and GIST430/654 cells were plated with 25,000 cells per well of a 96-well plate in 100 μl medium (85% IMDM/15% FCS supplemented with 100 nM Imatinib). At the following day compounds were added in a serial dilution for 45 min. Then, cells were lysed with 90 μl lysis buffer (20 mM Hepes pH 7.5, 200 mM NaCl, 1.5 mM MgCl2×6H2O, 0.4 mM EDTA, 1% Triton-X-100, 1% Phosphatase-Inhibitor II, 20 mM β-Glycerolphosphat, 0.1% Protease-Inhibitor Cocktail III, 0.01% Benzonase) and lysates were cleared by centrifugation through a 96-well filter plate (0.65 μm). Samples were incubated with Luminex-beads which were coupled with an anti-total cKIT antibody overnight at 4° C. under gentle agitation. For detection of phospho-Y307-cKIT a phosphospecific antibody and a species-specific PE-labeled secondary antibody were added. The amount of phospho-Y307-cKIT was determined in a Luminex 200 instrument measuring 100 events per well within 60 seconds.
Counts from samples treated with compounds were calculated as percent of control from solvent treated (0.3% DMSO) samples. Dose-response curves were fitted and IC50 values were determined using Genedata Screener software.

T2 sequence (P10721 with tags, fused parts or gaps DEL560-576/V654A): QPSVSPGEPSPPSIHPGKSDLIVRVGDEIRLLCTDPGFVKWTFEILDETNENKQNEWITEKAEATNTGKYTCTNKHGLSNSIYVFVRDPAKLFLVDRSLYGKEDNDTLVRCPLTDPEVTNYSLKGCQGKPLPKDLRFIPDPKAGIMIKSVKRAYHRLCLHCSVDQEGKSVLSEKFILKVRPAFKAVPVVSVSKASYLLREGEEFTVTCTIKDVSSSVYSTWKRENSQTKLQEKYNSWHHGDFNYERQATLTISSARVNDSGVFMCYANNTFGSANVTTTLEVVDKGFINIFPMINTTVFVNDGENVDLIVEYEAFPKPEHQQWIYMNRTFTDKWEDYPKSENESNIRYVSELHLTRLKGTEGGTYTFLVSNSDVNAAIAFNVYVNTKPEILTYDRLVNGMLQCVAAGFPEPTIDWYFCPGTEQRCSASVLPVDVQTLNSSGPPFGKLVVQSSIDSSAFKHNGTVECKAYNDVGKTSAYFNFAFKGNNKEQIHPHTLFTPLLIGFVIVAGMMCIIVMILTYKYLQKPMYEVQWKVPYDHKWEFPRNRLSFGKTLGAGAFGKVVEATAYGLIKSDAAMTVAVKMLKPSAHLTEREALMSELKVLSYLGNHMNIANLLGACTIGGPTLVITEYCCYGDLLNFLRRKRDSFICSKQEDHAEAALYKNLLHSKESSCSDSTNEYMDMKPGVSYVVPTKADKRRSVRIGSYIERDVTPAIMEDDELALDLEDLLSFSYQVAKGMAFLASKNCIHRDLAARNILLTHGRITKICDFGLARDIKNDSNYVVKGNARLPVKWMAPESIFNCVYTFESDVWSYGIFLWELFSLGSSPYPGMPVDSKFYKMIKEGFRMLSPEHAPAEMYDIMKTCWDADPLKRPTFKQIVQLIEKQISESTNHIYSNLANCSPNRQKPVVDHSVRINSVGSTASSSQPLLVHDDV
T1 sequence (P10721 544-976 V654A): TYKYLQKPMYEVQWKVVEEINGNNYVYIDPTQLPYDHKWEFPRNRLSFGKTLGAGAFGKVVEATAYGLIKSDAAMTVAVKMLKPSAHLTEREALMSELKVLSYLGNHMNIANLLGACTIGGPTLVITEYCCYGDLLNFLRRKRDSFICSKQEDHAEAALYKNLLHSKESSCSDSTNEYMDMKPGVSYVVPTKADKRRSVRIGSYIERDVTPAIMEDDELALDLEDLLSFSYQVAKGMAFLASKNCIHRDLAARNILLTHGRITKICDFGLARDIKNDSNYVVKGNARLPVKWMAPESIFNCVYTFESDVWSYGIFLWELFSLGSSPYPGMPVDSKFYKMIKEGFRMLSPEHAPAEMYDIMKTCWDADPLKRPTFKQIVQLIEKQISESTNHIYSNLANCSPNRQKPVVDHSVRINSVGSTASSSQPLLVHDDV

Row | Structure (SMILES) | pIC50 (c-Kit(V654A)) | pIC50 [1]
1 | Cn1ncc(-c2ccc(CNc3cc(-c4cnc5cc(OCCCN6CC7(COC7)C6)ccn45)ncn3)cc2)n1 [A239, [4-(2-methyl-2H-[1,2,3]triazol-4-yl)-benzyl]-(6-{7-[3-(2-oxa-6-aza-spiro[3.3]hept-6-yl)-propoxy]-imidazo[1,2-a]pyridin-3-yl}-pyrimidin-4-yl)-amine] | 8.49 | 7.03
2 | Cn1ncc(-c2ccc(CNc3cc(-c4cnc5cc(OCc6ccccn6)ccn45)ncn3)cc2)n1 [A106, [4-(2-methyl-2H-[1,2,3]triazol-4-yl)-benzyl]-{6-[7-(pyridin-2-ylmethoxy)-imidazo[1,2-a]pyridin-3-yl]-pyrimidin-4-yl}-amine] | 8.02 | 6.43
3 | Cn1cc(-c2ccc(CNc3cc(-c4cnc5cc(OCC(C)(C)N6CCOCC6)ccn45)ncn3)cc2)cn1 [A107, {6-[7-(2-methyl-2-morpholin-4-yl-propoxy)-imidazo[1,2-a]pyridin-3-yl]-pyrimidin-4-yl}-[4-(1-methyl-1H-pyrazol-4-yl)-benzyl]-amine] | 7.89 | 6.92
4 | Cn1cc(-c2ccc(CNc3cc(-c4cnc5cc(OCCN6CCN(C7COC7)CC6=O)ccn45)ncn3)cc2)cn1 [A95, 1-[2-({3-[6-({[4-(1-methyl-1H-pyrazol-4-yl)phenyl]methyl}amino)pyrimidin-4-yl]imidazo[1,2-a]pyridin-7-yl}oxy)ethyl]-4-(oxetan-3-yl)piperazin-2-one] | 8.01 | 6.68
5 | CN1CCN(c2ccn3c(-c4cc(NCc5ccc(-c6cnn(C)c6)cc5)ncn4)cnc3c2)CC1 [A181, {6-[7-(4-methyl-piperazin-1-yl)-imidazo[1,2-a]pyridin-3-yl]-pyrimidin-4-yl}-[4-(1-methyl-1H-pyrazol-4-yl)-benzyl]-amine] | 7.82 | 6.96
6 | Cn1ncc(-c2ccc(CNc3cc(-c4cnc5cc(OCCC6CCN(C7COC7)C6)ccn45)ncn3)cc2)n1 (stereo not drawn) [A119, [4-(2-methyl-2H-[1,2,3]triazol-4-yl)-benzyl]-(6-{7-[2-(1-oxetan-3-yl-pyrrolidin-3-yl)-ethoxy]-imidazo[1,2-a]pyridin-3-yl}-pyrimidin-4-yl)-amine] | 8.47 | 7.21
7 | COCCN1CCC(COc2ccn3c(-c4cc(NCc5ccc(-c6cnn(C)n6)cc5)ncn4)cnc3c2)CC1 [A191, (6-{7-[1-(2-methoxy-ethyl)-piperidin-4-ylmethoxy]-imidazo[1,2-a]pyridin-3-yl}-pyrimidin-4-yl)-[4-(2-methyl-2H-[1,2,3]triazol-4-yl)-benzyl]-amine] | 8.66 | 7.41
8 | Cn1cc(-c2ccc(CNc3cc(-c4cnc5cc(CCN6CCC(F)(F)C6)ccn45)ncn3)cc2)cn1 [A169, (6-{7-[2-(3,3-difluoro-pyrrolidin-1-yl)-ethyl]-imidazo[1,2-a]pyridin-3-yl}-pyrimidin-4-yl)-[4-(1-methyl-1H-pyrazol-4-yl)-benzyl]-amine] | 7.49 | 6.52
9 | CN1CCO[C@H](COc2ccn3c(-c4cc(NCc5ccc(-c6cnn(C)n6)cc5)ncn4)cnc3c2)C1 [A122, {6-[7-((S)-4-methyl-morpholin-2-ylmethoxy)-imidazo[1,2-a]pyridin-3-yl]-pyrimidin-4-yl}-[4-(2-methyl-2H-[1,2,3]triazol-4-yl)-benzyl]-amine] | 7.59 | 6.59
10 | Cn1cc(-c2ccc(CNc3cc(-c4cnc5cc(OCC6CCN(C7CC7)CC6)ccn45)ncn3)cc2)cn1 [A187, {6-[7-(1-cyclopropyl-piperidin-4-ylmethoxy)-imidazo[1,2-a]pyridin-3-yl]-pyrimidin-4-yl}-[4-(1-methyl-1H-pyrazol-4-yl)-benzyl]-amine] | 8.12 | 6.42

More lines, now with the values ahead:

Row | pIC50 (c-Kit(V654A)) | pIC50 [1] | Structure (SMILES)
11 | 7.34 | 5.80 | COc1ccn2c(-c3cc(NCc4ccc(-c5cnc(C)nc5)cc4)ncn3)cnc2c1 [A41, 6-{7-methoxyimidazo[1,2-a]pyridin-3-yl}-N-{[4-(2-methylpyrimidin-5-yl)phenyl]methyl}pyrimidin-4-amine]
12 | 7.15 | 6.05 | COc1ccn2c(-c3cc(NCc4ccc(-c5cn(C)nc5N)cc4)ncn3)cnc2c1 [A35, [4-(3-amino-1-methyl-1H-pyrazol-4-yl)-benzyl]-[6-(7-methoxy-imidazo[1,2-a]pyridin-3-yl)-pyrimidin-4-yl]-amine]
13 | 7.66 | 6.82 | Cn1cc(-c2ccc(CNc3cc(-c4cnc5cc(OCCCN6CCC(F)(F)C6)ccn45)ncn3)cc2)cn1 [A101, 6-{7-[3-(3,3-difluoropyrrolidin-1-yl)propoxy]imidazo[1,2-a]pyridin-3-yl}-N-{[4-(1-methyl-1H-pyrazol-4-yl)phenyl]methyl}pyrimidin-4-amine]
14 | 7.57 | 6.74 | COc1ccn2c(-c3cc(NCc4ccc(-c5cnn(CCO)c5)cc4)ncn3)cnc2c1 [A30, 2-[4-(4-{[6-(7-methoxy-imidazo[1,2-a]pyridin-3-yl)-pyrimidin-4-ylamino]-methyl}-phenyl)-pyrazol-1-yl]-ethanol]
15 | 8.26 | 5.59 | COc1ccn2c(-c3cc(NCc4ccc(-c5ccccc5)cc4)ncn3)cnc2c1 [A3, N-({[1,1′-biphenyl]-4-yl}methyl)-6-{7-methoxyimidazo[1,2-a]pyridin-3-yl}pyrimidin-4-amine]
16 | 7.82 | 6.92 | COc1ccn2c(-c3cc(NCc4ccc(-c5cnn(C)c5)c(F)c4)ncn3)cnc2c1 [A29, N-{[3-fluoro-4-(1-methyl-1H-pyrazol-4-yl)phenyl]methyl}-6-{7-methoxyimidazo[1,2-a]pyridin-3-yl}pyrimidin-4-amine]
17 | 8.33 | 7.40 | CN1CCO[C@H](COc2ccn3c(-c4cc(NCc5ccc(-c6cnn(C)c6)cc5)ncn4)cnc3c2)C1 [A118, {6-[7-((S)-4-methyl-morpholin-2-ylmethoxy)-imidazo[1,2-a]pyridin-3-yl]-pyrimidin-4-yl}-[4-(1-methyl-1H-pyrazol-4-yl)-benzyl]-amine]
18 | 7.42 | 6.00 | Cn1cc(-c2ccc(CNc3cc(-c4cnc5cc(O)ccn45)ncn3)cc2)cn1 [A160, 3-[6-({[4-(1-methyl-1H-pyrazol-4-yl)phenyl]methyl}amino)pyrimidin-4-yl]imidazo[1,2-a]pyridin-7-ol]
19 | 7.07 | 5.72 | Cn1cc(-c2ccc(CNc3cc(-c4cnc5cc(NC(C)(C)CO)ccn45)ncn3)cc2)cn1 [A163, 2-methyl-2-(3-{6-[4-(1-methyl-1H-pyrazol-4-yl)-benzylamino]-pyrimidin-4-yl}-imidazo[1,2-a]pyridin-7-ylamino)-propan-1-ol]
20 | 8.05 | 6.59 | Cn1cc(-c2ccc(CNc3cc(-c4cnc5cc(OC6CCNCC6)ccn45)ncn3)cc2)cn1 [A164, N-{[4-(1-methyl-1H-pyrazol-4-yl)phenyl]methyl}-6-[7-(piperidin-4-yloxy)imidazo[1,2-a]pyridin-3-yl]pyrimidin-4-amine]
21 | 8.20 | 6.47 | COc1ccn2c(-c3cc(NCc4ccc(-c5ncc(C)o5)cc4)ncn3)cnc2c1 [A53, [6-(7-methoxy-imidazo[1,2-a]pyridin-3-yl)-pyrimidin-4-yl]-[4-(5-methyl-oxazol-2-yl)-benzyl]-amine]
22 | 7.31 | 6.09 | COc1ccn2c(-c3cc(NCc4ccc(-c5cn(C)nn5)cc4)ncn3)cnc2c1 [A31, [6-(7-methoxy-imidazo[1,2-a]pyridin-3-yl)-pyrimidin-4-yl]-[4-(1-methyl-1H-[1,2,3]triazol-4-yl)-benzyl]-amine]
23 | 8.13 | 6.74 | Cn1cc(-c2ccc(CNc3cc(-c4cnc5cc(N)ccn45)ncn3)cc2)cn1 [A162, 6-{7-aminoimidazo[1,2-a]pyridin-3-yl}-N-{[4-(1-methyl-1H-pyrazol-4-yl)phenyl]methyl}pyrimidin-4-amine]
24 | 7.72 | 6.82 | Cn1cc(-c2ccc(CNc3cc(-c4cnc5cc(OCC6CC6)ccn45)ncn3)cc2)cn1 [A58, 6-[7-(cyclopropylmethoxy)imidazo[1,2-a]pyridin-3-yl]-N-{[4-(1-methyl-1H-pyrazol-4-yl)phenyl]methyl}pyrimidin-4-amine]
